From US20120329770A1, “CEPHALOSPORIN DERIVATIVES USEFUL AS BETA-LACTAMASE INHIBITORS AND COMPOSITIONS AND METHODS OF USE THEREOF” (priority 2010, published 2012)

Tests used:
[1] = test system: Pseudomonas aeruginosa IS 5563; test: Antimicrobial MIC / checkerboard assay for synergy with meropenem; type: cell-based; settings: for FIC: P. aeruginosa IS 5563, meropenem + compound, checkerboard
Protocol: (§1) Assays were conducted as described by Weigand et al. (Weigand, I.; Hilpert, K.; Hancock, R. E. Nat. Protocols 2008, 3, 163-175).
(§2) To determine the lowest concentration of an antimicrobial agent that inhibits visible growth of a microorganism, 50 μL of compound solution and 50 μL of buffer solution were added to each well at the desired concentration(s) (i.e. 4×the final concentration) as well as a zero control. Stock solutions of 10 mg/mL, were prepared in DMSO, followed by two-fold serial dilutions in Müeller-Hinton media and 100 μL of bacteria (ca. 5×10^5 CFU/mL) was added to each well. Plate counts were performed on the control wells to determine bacterial innoculum level. The innoculum was prepared by taking an overnight culture in Müeller-Hinton media and diluting to McFarland's 0.5 standard, and diluting a further 1:100 prior to addition to the plate. Lanes with no bacteria added served as sterility controls and lanes with no compound served as growth controls. Organisms were allowed to grow overnight at 37° C. in a humid environment and the plates were monitored at 625 nm for growth. MIC was determined to be the last well with no growth.
(§3) In the checkerboard assay one compound is serially diluted along the ordinate, and the second compound is serially diluted along the abscissa. […] A 50 μL aliquot of the compound was added to each well at the desired concentration(s) (i.e. 4×the final concentration) as well as a zero control. Stock solutions of 10 mg/mL of compound were prepared in DMSO, followed by two-fold serial dilutions in Müeller-Hinton media. Finally, 100 μL of bacteria (ca. 5×10^5 CFU/mL) was added to each well. Plate counts were performed on the control wells. Innoculum was prepared by taking an overnight culture in Müeller-Hinton media and diluting to McFarland's 0.5 standard, and diluting a further 1:100 prior to addition to the plate. […] The final volume in each well was 200 μL. The plates were allowed to grow overnight at 37° C. in a humid environment and were monitored at 625 nm for growth. […] Sterility controls and growth controls were included on each plate. The fractional inhibitory concentration (FIC) was determined as follows:
(§4) Results were interpreted in the following way: Synergistic if FIC≦0.5; Additive if […]; Indifferent if […]; Antagonistic if FIC≧2.0.

[2] = test system: Stenotrophomonas maltophilia IS 5568; test: as above; type: cell-based; settings: for FIC: S. maltophilia IS 5568, meropenem + compound, checkerboard
Protocol: as §1, §2, §3, §4

[3] = test system: Stenotrophomonas maltophilia IS 6081; test: as above; type: cell-based; settings: S. maltophilia IS 6081, meropenem + compound
Protocol: as §1, §2
(§5) In the checkerboard assay one compound is serially diluted along the ordinate, and the second compound is serially diluted along the abscissa. […] A 50 μL aliquot of the compound was added to each well at the desired concentration(s) (i.e. 4×the final concentration) as well as a zero control. Stock solutions of 10 mg/mL of compound were prepared in DMSO, followed by two-fold serial dilutions in Müeller-Hinton media. Finally, 100 μL of bacteria (ca. 5×10^5 CFU/mL) was added to each well. Plate counts were performed on the control wells. Innoculum was prepared by taking an overnight culture in Müeller-Hinton media and diluting to McFarland's 0.5 standard, and diluting a further 1:100 prior to addition to the plate. Lanes with no bacteria added served as sterility controls and lanes with no meropenem or compound served as growth controls. The final volume in each well was 200 μL. The plates were allowed to grow overnight at 37° C. in a humid environment and were monitored at 625 nm for growth. […] Sterility controls and growth controls were included on each plate. The fractional inhibitory concentration (FIC) was determined as follows:
as §4

[4] = test system: Chryseobacterium meningosepticum IS 5824; test: as above; type: cell-based; settings: for FIC: meropenem + compound, checkerboard
Protocol: as §1, §2, §5, §4

[5] = test system: Stenotrophomonas maltophilia IS 6069; test: as above; type: cell-based; settings: S. maltophilia IS 6069, meropenem + compound
Protocol: as §1, §2, §5, §4

[6] = test system: Pseudomonas aeruginosa IS 6225; test: as above; type: cell-based; settings: P. aeruginosa IS 6225, meropenem + compound
Protocol: as §1, §2, §5, §4

IMP-1 = target: T1, IMP-1 (Serratia marcescens, UniProt P52699); test: Inhibition of IMP-1-catalyzed hydrolysis of meropenem in vitro (310 nm); type: biochemical; settings: for protection of meropenem from IMP-1-catalyzed hydrolysis in vitro: IMP-1 12 nM, meropenem 200 μM, test substance 100 μM, 310 nm
T1 construct: made in house; host or cells: Escherichia coli BL21(DE3) carrying pCIP4

[7] = test system: Pseudomonas aeruginosa C-10; test: Antimicrobial MIC / checkerboard assay for synergy with meropenem; type: cell-based; settings: P. aeruginosa C-10; for FIC: meropenem + compound, checkerboard
Protocol: as §1, §2, §5, §4

β-lactamases = test: β-Lactamase inhibition, result in words; type: biochemical
Text: In preferred embodiments, the compounds incorporate a good leaving group at the C3′ carbon that can be readily expelled as an anion. In some embodiments, the leaving group is a C3′-benzoylthio group, which may be substituted or unsubstituted, according to the definitions provided above for substituted or unsubstituted.
This effect correlates with the expected better leaving group ability of the benzoylthio group in the hydrolysis product versus the benzoate group in the comparative compound.

[8] = target: T2, IMP-1 metallo-β-lactamase (Serratia marcescens, UniProt P52699); test: Inhibition of β-lactamases, nitrocefin hydrolysis; type: biochemical
T2 construct: made in house; host or cells: Escherichia coli BL21(DE3) carrying pCIP4
Text: IMP-1 metallo-β-lactamase was expressed in Esherichia coli BL21(DE3) carrying pCIP4 and purified as reported by Laraki et al. (Antimicrob. Agents Chemother. 1999, 43, 902-906). The homogeneity of the protein was confirmed by SDS-PAGE according to the method of Laemmli (Nature 1970, 227, 680-685). The molecular weight of purified IMP-1, Mr=25,112±0.5 Da, as determined by ESI-MS, was in agreement with that deduced from its amino acid sequence (Laraki et al. Antimicrob. Agents Chemother. 1999, 43, 890-901).
Assay conditions for IC50 determinations involved enzyme concentrations ranging between 2 and 6 nM. The concentration used for the nitrocefin substrate was 100 μM. Assays with OXA-10 and OXA-45 were conducted at pH 7.0 with 100 mM sodium phosphate buffer containing 25 mM sodium bicarbonate. Assays with KPC-2 and GC1 were performed at pH 7.0 in 50 mM HEPES buffer and assays with IMP-1 and VIM-2 were performed in the same buffer with the addition of 500 mM NaCl and 1 μM ZnSO4. BSA was used with all enzymes (except OXA-10 and KPC-2) at concentrations of 0.5-1.0 μg/mL.
Inhibitors were pre-incubated for 10 minutes at room temperature with enzyme assay solutions prior to the addition of the nitrocefin. These compounds were dissolved in DMSO and prepared at various concentrations such that the final concentration of DMSO was 1% during the pre-incubation. The reaction was initiated by the addition of the pre-incubated enzyme-cyclobutanone solution (90 μL) to a solution of nitrocefin in buffer (10 μL). Enzymatic activity was determined using the initial rate of increase in absorbance at 482 nm

T1 sequence (P52699 19-246 limits assumed): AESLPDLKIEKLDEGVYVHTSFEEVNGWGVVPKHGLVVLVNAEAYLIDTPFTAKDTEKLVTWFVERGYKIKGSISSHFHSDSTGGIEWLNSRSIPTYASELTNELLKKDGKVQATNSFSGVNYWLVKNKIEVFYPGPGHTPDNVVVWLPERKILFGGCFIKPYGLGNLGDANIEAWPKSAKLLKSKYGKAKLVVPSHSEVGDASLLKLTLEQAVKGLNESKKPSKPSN
T2 sequence (P52699 19-246, looked up): as the sequence (P52699 19-246 limits assumed) above

Row | SMILES | FIC [1] | FIC [2] | FIC [3] | FIC ([4]; C. meningosepticum IS 5824) | FIC [5] | FIC [6] | FIC [7] | other results
1 | O=C(Cc1cccs1)N[C@@H]1C(=O)N2C(C(=O)O)=C(CSC(=O)c3ccccc3)CS[C@H]12 [CMPD B] | 0.1328 | 0.1289 | 0.1328 | 0.5078 | 0.1875 | 0.375 | – | –
2 | CO/N=C(\C(=O)N[C@@H]1C(=O)N2C(C(=O)O)=C(CSC(=O)c3ccco3)CS[C@H]12)c1csc(N)n1 [ceftiofur] | – | – | – | – | – | – | – | performance as inhibitor (IMP-1): poor performance; protection of meropenem from IMP-1-catalyzed hydrolysis in vitro (IMP-1): relatively poor protection
3 | C[C@@H](O)[C@H]1C(=O)N2C(C(=O)O)=C(S[C@@H]3CN[C@H](C(=O)N(C)C)C3)[C@H](C)[C@H]12 [Mero, meropenem, reference compound] | – | – | – | – | – | – | – | MIC ([1]; Pseudomonas aeruginosa, IS5563, read-out: MIC Mero Alone, P. aeruginosa IS 5563): 64 µg/mL; MIC ([2]; Stenotrophomonas maltophilia, IS5568, read-out: MIC Mero Alone, S. maltophilia IS 5568): 64 µg/mL; MIC ([7]; Pseudomonas aeruginosa, C10, read-out: MIC Mero Alone): 16 µg/mL; MIC Mero Alone ([4]; C. meningosepticum IS 5824): 32 µg/mL; MIC ([4]; Elizabethkingia meningoseptica, IS5824, read-out: MIC Mero Alone, C. meningosepticum IS 5824): 64 µg/mL
4 | O=C(Cc1cccs1)NC1C(=O)N2C(C(=O)O)=C(COC(=O)c3ccccc3)CSC12 (centres unmarked) [oxygen analogue, reference compound] | – | – | – | – | – | – | – | β-lactamase inhibition (β-lactamases): substrate but not an inhibitor
5 | O=C(Cc1ccc(F)cc1)N[C@@H]1C(=O)N2C(C(=O)O)=C(CSC(=O)c3ccccc3)CS[C@H]12 [CMPD E] | 0.1269 | 0.126 | 1.03 | 0.2578 | 0.1875 | 2 | 0.625 | –
6 | O=C(Cc1ccc(Cl)cc1)N[C@@H]1C(=O)N2C(C(=O)O)=C(CSC(=O)c3ccccc3)CS[C@H]12 [CMPD D] | 0.2519 | 0.126 | 1.03 | 0.2578 | 0.1875 | 2 | 1 | –
7 | O=C(Cc1ccc(F)cc1)N[C@@H]1C(=O)N2C(C(=O)O)=C(CSC(=O)c3ccccc3)CS[C@H]12 [Example 16, (6R,7R)-3-(benzoylthiomethyl)-7-(2-(4-fluorophenyl)acetamido)-8-oxo-5-thia-1-azabicyclo[4.2.0]oct-2-ene-2-carboxylic acid] | – | – | – | – | – | – | – | protection of meropenem from IMP-1-catalyzed hydrolysis in vitro (IMP-1): good protection
8 | OC(=S)c1ccccc1 [benzoylthio, reference compound] | – | – | – | – | – | – | – | inhibition of the MBL IMP-1 [8]: poor inhibitor
9 | CC(=O)SCC1=C(C(=O)O)N2C(=O)[C@@H](NC(=O)Cc3cccs3)[C@H]2SC1 [Example 12, (6R,7R)-3-(acetylthiomethyl)-8-oxo-7-(2-(thiophen-2-yl)acetamido)-5-thia-1-azabicyclo[4.2.0]oct-2-ene-2-carboxylic acid] | – | – | – | – | – | – | – | performance as inhibitor (IMP-1): poor performance
10 | COc1cccc(CC(=O)N[C@@H]2C(=O)N3C(C(=O)O)=C(CSC(=O)c4ccccc4)CS[C@H]23)c1 [CMPD F] | 0.2519 | 0.126 | 0.281 | 0.2578 | 0.1875 | 3 | 1.5 | –
